Results published in publication PMC4452912 (Viruses, 2015).

Tests used:
[1] = tested on: DENV (serotype 2, New Guinea C isolate); assay: microbe, parasite or virus in culture; format: cell-based; conditions: Dengue virus, DENV2, 120 h; Vero cells, MOI 0.01, 5 days; mean of duplicate
[2] = Guinea pig pharmacokinetics; format: in vivo, Hartley guinea pigs; conditions: Hartley; for half-life: plasma, guinea pigs
Mouse pharmacokinetics = format: in vivo, Swiss Albino mice; conditions: male, Swiss Albino
ER α-glucosidase I = molecular target: T1, ER α-glucosidase I (Bos taurus, UniProt A0A3Q1M9D9); format: cell-based
T1 sequence (A0A3Q1M9D9 1-839): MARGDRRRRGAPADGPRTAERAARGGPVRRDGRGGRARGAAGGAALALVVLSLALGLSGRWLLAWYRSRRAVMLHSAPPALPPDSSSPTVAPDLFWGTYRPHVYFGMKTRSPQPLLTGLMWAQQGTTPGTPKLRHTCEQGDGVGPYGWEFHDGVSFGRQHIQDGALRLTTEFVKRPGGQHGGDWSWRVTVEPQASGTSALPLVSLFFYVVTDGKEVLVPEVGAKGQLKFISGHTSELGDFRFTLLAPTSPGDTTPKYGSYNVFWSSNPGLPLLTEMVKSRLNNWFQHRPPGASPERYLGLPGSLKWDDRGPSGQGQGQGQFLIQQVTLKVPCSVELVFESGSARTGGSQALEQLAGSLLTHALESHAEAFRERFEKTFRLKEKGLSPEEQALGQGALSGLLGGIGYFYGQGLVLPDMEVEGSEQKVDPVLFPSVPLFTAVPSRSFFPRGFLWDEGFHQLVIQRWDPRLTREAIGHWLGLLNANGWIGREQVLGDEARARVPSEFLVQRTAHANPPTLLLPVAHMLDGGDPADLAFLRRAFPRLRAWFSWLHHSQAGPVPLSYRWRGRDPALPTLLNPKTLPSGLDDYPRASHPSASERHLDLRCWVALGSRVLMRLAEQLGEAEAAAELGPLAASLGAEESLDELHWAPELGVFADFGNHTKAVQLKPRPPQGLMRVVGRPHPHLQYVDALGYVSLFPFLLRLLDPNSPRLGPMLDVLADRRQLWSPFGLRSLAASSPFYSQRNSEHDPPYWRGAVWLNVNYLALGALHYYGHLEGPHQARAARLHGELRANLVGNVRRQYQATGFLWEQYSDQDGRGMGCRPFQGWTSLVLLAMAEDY

[3] = Maximum tolerated dose in guinea pigs; format: in vivo, Hartley guinea pigs; conditions: for MTD at 7 days: female, Hartley, guinea pig, in vivo, single bolus
physchem = conditions: aqueous buffer
[4] = 10 day repeat dose oral safety study in mice; format: in vivo, Swiss Albino mice; conditions: male mice
in vitro [5] = format: in vitro ADME; conditions: dog, plasma
CYP1A2 = molecular target: T2, CYP1A2 (Homo sapiens, UniProt P05177); assay: CYP inhibition in human liver microsomes, CYP1A2; format: in vitro ADME
T2 sequence (P05177 1-516): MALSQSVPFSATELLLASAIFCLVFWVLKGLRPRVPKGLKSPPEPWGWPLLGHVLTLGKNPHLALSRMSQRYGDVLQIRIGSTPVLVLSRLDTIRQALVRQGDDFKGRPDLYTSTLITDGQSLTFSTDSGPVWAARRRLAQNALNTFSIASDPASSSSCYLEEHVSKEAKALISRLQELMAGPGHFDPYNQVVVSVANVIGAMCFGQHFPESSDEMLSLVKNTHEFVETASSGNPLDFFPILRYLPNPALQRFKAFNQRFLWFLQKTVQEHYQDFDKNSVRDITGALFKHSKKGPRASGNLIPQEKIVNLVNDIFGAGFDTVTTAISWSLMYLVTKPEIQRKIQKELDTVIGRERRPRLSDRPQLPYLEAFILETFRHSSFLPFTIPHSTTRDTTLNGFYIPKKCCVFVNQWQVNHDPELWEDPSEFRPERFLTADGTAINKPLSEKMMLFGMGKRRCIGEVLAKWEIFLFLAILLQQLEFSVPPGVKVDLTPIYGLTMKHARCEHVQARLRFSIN

in vitro [6] = format: in vitro ADME; conditions: mouse, microsomes
[7] = 100 mg/kg PO TID 10 days, vs control

In the case of `OC[C@@H]1[C@@H](O)[C@H](O)[C@@H](O)CN1CCCCCCCCC1CCCO1` (stereo partly drawn) [UV-12], the IC50 [1] is reported as 21.7 µM, the Cmax ([2]; in vivo) is reported as 8850 to 11600 ng/mL and the Tmax ([2]; in vivo) is reported as 15 to 30 min. For the same molecule, the AUC(0-inf) ([2]; female, in vivo, im, 100 mg/kg) was 19200 ng·h/mL, the AUC(0-t) ([2]; female, in vivo, im, 100 mg/kg) was 19100 ng·h/mL and the Cmax ([2]; female, in vivo, im, 100 mg/kg) was 11600 ng/mL. The Tmax ([2]; female, in vivo, im, 100 mg/kg) was 15 min, the bioavailability ([2]; female, in vivo, im, 100 mg/kg) was 109% and the “Vss relative to normal body water” value ([2]; female, in vivo, iv) was over 8 fold. The AUC(0-inf) ([2]; female, in vivo, iv, 25 mg/kg) was 4400 ± 599 ng·h/mL, the AUC(0-t) ([2]; female, in vivo, iv, 25 mg/kg) was 4370 ± 583 ng·h/mL and the Cmax ([2]; female, in vivo, iv, 25 mg/kg) was 8860 ng/mL. For the same molecule, the Vd ([2]; female, in vivo, iv, 25 mg/kg) was 5.14 ± 0.64 L/kg, the clearance ([2]; female, in vivo, iv, 25 mg/kg) was 95.9 ± 12.7 mL/min/kg and the AUC(0-inf) ([2]; female, in vivo, sc, 100 mg/kg) was 23100 ng·h/mL. The AUC(0-t) ([2]; female, in vivo, sc, 100 mg/kg) was 23000 ng·h/mL, the Cmax ([2]; female, in vivo, sc, 100 mg/kg) was 11000 ng/mL and the Tmax ([2]; female, in vivo, sc, 100 mg/kg) was 30 min. For the same molecule, the bioavailability ([2]; female, in vivo, sc, 100 mg/kg) was 131%, the half-life ([2]; female, IM 100 mg/kg) was 119 ± 54.6 min and the half-life ([2]; female, IV 25 mg/kg) was 84 ± 5.4 min. The half-life ([2]; female, SC 100 mg/kg) was 133 ± 22.2 min, the Cmax (Mouse pharmacokinetics; in vivo) was 8880 to 12600 ng/mL and the bioavailability (Mouse pharmacokinetics; in vivo) was 77%. The “CL as % of mouse liver blood flow” value (Mouse pharmacokinetics; in vivo, iv) was 31%, the “Vss relative to total body water” value (Mouse pharmacokinetics; in vivo, iv) was 3 fold and the AUC(0-inf) (Mouse pharmacokinetics; in vivo, iv, 10 mg/kg) was 5910 ng·h/mL. The AUC(0-t) (Mouse pharmacokinetics; in vivo, iv, 10 mg/kg) was 5900 ng·h/mL, the Cmax (Mouse pharmacokinetics; in vivo, iv, 10 mg/kg) was 8880 ng/mL and the Vd (Mouse pharmacokinetics; in vivo, iv, 10 mg/kg) was 1.98 L/kg. For the same molecule, the clearance (Mouse pharmacokinetics; in vivo, iv, 10 mg/kg) was 28.2 mL/min/kg, the AUC(0-inf) (Mouse pharmacokinetics; in vivo, po, 100 mg/kg) was 45500 ng·h/mL and the AUC(0-t) (Mouse pharmacokinetics; in vivo, po, 100 mg/kg) was 43100 ng·h/mL. It also gave a Cmax (Mouse pharmacokinetics; in vivo, po, 100 mg/kg) of 12600 ng/mL, a Tmax (Mouse pharmacokinetics; in vivo, po, 100 mg/kg) of 30 min and a half-life (Mouse pharmacokinetics; plasma, mice, IV 10 mg/kg) of 115 min. The “cellular half-life of UV-12 inhibition (blockage of α-glucosidase I)” value (ER α-glucosidase I) was 307 ± 109 min, the “reversibility of inhibition in cells” value (ER α-glucosidase I; MDBK cells) was “reversible inhibitor” and the “clinical signs and mortality, 7 days observation” value ([3]; IM 20-100 mg/kg, IV 10-80 mg/kg) was “no clinical signs of toxicity or mortality”. The MTD at 7 days ([3]; IV route) was over 80 mg/kg, the MTD at 7 days ([3]; im, intramuscular route) was over 100 mg/kg and the solubility (physchem) was over 100 mg/mL. The “average weight lost at end of treatment” value ([4]; 100 mg/kg PO TID 10 days) was 1.72 g, the “thymus finding at necropsy/histopathology” value ([4]; 100 mg/kg PO TID 10 days, associated with decreased thymus weight) was “lymphoid depletion” and the “average weight lost at end of treatment” value ([4]; 100 mg/kg PO TID 10 days, not statistically significant) was 4.53%. The “decreased ALP” value [4, 7] was 45%, the decreased glucose [4, 7] was 29% and the “increased AST” value [4, 7] was 76%. The “mortality, general health, body weights, food consumption” value ([4]; 100 mg/kg PO three times daily, 10 days) was “neither mortality nor any noteworthy effects”, the fraction unbound at 6 h, 10 μM (in vitro [5]) was 0.28 and the IC50 (CYP1A2) was over 100 µM. The “Liver microsome metabolic stability CLintr” value (in vitro [6]) was under 0.6 mL/min/g liver, the half-life at 0.5 µM (in vitro [6]) was over 30 min and the “parent drug remained after 30 min” value (in vitro [6]; 0.5 h, 0.5 µM) was 100%.
